Source: US20240181081A1, “Compositions and Methods for Treatment of Myotonic Dystrophy Type 1 with CRISPR/SACAS9” (Vertex Pharmaceuticals Incorporated, priority 2021, published 2024)

Assays:
[1] = test system: CTG repeat expansion in the 3′ UTR of human DMPK gene; assay: DOUBLE-cut screening: CTG repeat excision by loss-of-signal ddPCR in primary DM1 patient myoblasts; type: cell-based; conditions: sgRNA pair RNP, mean of upstream and downstream ddPCR assays; for % of CTG repeat excision efficiency by ddPCR (DNA-PKi): 3 μM Compound 6 for 48 hrs; for % of CTG repeat excision efficiency by ddPCR (Vehicle): DMSO 48 hrs
Procedure, shortened: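 Paired upstream/downstream sgRNAs, each as RNP with recombinant SaCas9 (20 pmol protein:60 pmol sgRNA), mixed 1:1 and nucleofected into primary DM1 myoblasts; cells then given DMSO or 3 μM DNA-PKi Compound 6 for 48 hrs. Genomic DNA taken 72 hrs post-nucleofection; excision is mean of upstream and downstream loss-of-signal ddPCR, normalized to DMPK exon 1 reference.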

[2] = test system: CUG RNA foci in primary DM1 patient myoblasts; assay: DOUBLE-cut screening: FISH staining of RNA foci in primary DM1 patient myoblasts; type: cell-based, human; conditions: sgRNA pair RNP, 72 hrs post nucleofection; for % of CUG foci free nuclei (DNA-PKi): 3 μM Compound 6 for 48 hrs; for % of CUG foci free nuclei (Vehicle): DMSO 48 hrs
Procedure, shortened: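 Primary DM1 patient myoblasts nucleofected with paired upstream/downstream sgRNA–SaCas9 RNPs (20 pmol protein, 60 pmol sgRNA each), then treated 48 hrs with DMSO or 3 μM DNA-PK inhibitor. At 72 hrs post nucleofection, CUG foci stained by Cy3-PNA(CAG)5 FISH with MBNL1 co-staining and quantified by high-content confocal imaging.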

## SaU8 + SaD15: SaCas9 sgRNA pair, SEQ ID NOs: 8 and 23 (guide 1 GGCTCGAAGGGTCCTTGTAGCC; guide 2 GACAATAAATACCGAGGAATGT; listed as DNA, chemistry not fully specified)
[1]
  % of CTG repeat excision efficiency by ddPCR (DNA-PKi): 57.24%
  % of CTG repeat excision efficiency by ddPCR (Vehicle): 39.47%
[2]
  % of CUG foci free nuclei (DNA-PKi): 86.21%
  % of CUG foci free nuclei (Vehicle): 76.50%

## SaU8 + SaD17: SaCas9 sgRNA pair, SEQ ID NOs: 8 and 25 (guide 1 GGCTCGAAGGGTCCTTGTAGCC; guide 2 TTTATTCGCGAGGGTCGGGGGT; listed as DNA, chemistry not fully specified)
[1]
  % of CTG repeat excision efficiency by ddPCR (DNA-PKi): 49.09%
  % of CTG repeat excision efficiency by ddPCR (Vehicle): 30.50%
[2]
  % of CUG foci free nuclei (DNA-PKi): 79.35%
  % of CUG foci free nuclei (Vehicle): 52.34%

## SaU8 + SaD18: SaCas9 sgRNA pair, SEQ ID NOs: 8 and 26 (guide 1 GGCTCGAAGGGTCCTTGTAGCC; guide 2 GGGCCTTTTATTCGCGAGGGTC; listed as DNA, chemistry not fully specified)
[1]
  % of CTG repeat excision efficiency by ddPCR (DNA-PKi): 44.51%
  % of CTG repeat excision efficiency by ddPCR (Vehicle): 18.17%
[2]
  % of CUG foci free nuclei (DNA-PKi): 70.76%
  % of CUG foci free nuclei (Vehicle): 36.66%

## SaU8 + SaD19: SaCas9 sgRNA pair, SEQ ID NOs: 8 and 27 (guide 1 GGCTCGAAGGGTCCTTGTAGCC; guide 2 AGGACCCCCACCCCCGACCCTC; listed as DNA, chemistry not fully specified)
[1]
  % of CTG repeat excision efficiency by ddPCR (DNA-PKi): 46.04%
  % of CTG repeat excision efficiency by ddPCR (Vehicle): 28.95%
[2]
  % of CUG foci free nuclei (DNA-PKi): 83.45%
  % of CUG foci free nuclei (Vehicle): 61.41%

## SaU8 +SaD3: SaCas9 sgRNA pair, SEQ ID NOs: 8 and 11 (guide 1 GGCTCGAAGGGTCCTTGTAGCC; guide 2 CAACGATAGGTGGGGGTGCGTG; listed as DNA, chemistry not fully specified)
[1]
  % of CTG repeat excision efficiency by ddPCR (DNA-PKi): 59.28%
  % of CTG repeat excision efficiency by ddPCR (Vehicle): 48.19%
[2]
  % of CUG foci free nuclei (DNA-PKi): 82.41%
  % of CUG foci free nuclei (Vehicle): 57.67%

## SaU8 +SaD10: SaCas9 sgRNA pair, SEQ ID NOs: 8 and 18 (guide 1 GGCTCGAAGGGTCCTTGTAGCC; guide 2 TTGGGGGTCCTGTAGCCTGTCA; listed as DNA, chemistry not fully specified)
[1]
  % of CTG repeat excision efficiency by ddPCR (DNA-PKi): 69.07%
  % of CTG repeat excision efficiency by ddPCR (Vehicle): 48.45%
[2]
  % of CUG foci free nuclei (DNA-PKi): 82.92%
  % of CUG foci free nuclei (Vehicle): 74.46%

## SaU8 +SaD11: SaCas9 sgRNA pair, SEQ ID NOs: 8 and 19 (guide 1 GGCTCGAAGGGTCCTTGTAGCC; guide 2 CAAAACGTGGATTGGGGTTGTT; listed as DNA, chemistry not fully specified)
[1]
  % of CTG repeat excision efficiency by ddPCR (DNA-PKi): 47.57%
  % of CTG repeat excision efficiency by ddPCR (Vehicle): 31.52%
[2]
  % of CUG foci free nuclei (DNA-PKi): 70.97%
  % of CUG foci free nuclei (Vehicle): 44.65%

## SaU8 +SaD13: SaCas9 sgRNA pair, SEQ ID NOs: 8 and 21 (guide 1 GGCTCGAAGGGTCCTTGTAGCC; guide 2 CCCAACAACCCCAATCCACGTT; listed as DNA, chemistry not fully specified)
[1]
  % of CTG repeat excision efficiency by ddPCR (DNA-PKi): 51.64%
  % of CTG repeat excision efficiency by ddPCR (Vehicle): 29.46%
[2]
  % of CUG foci free nuclei (DNA-PKi): 77.05%
  % of CUG foci free nuclei (Vehicle): 43.66%
